{"source": "patent US11278561B2", "about": "“Combination treatment for hematological cancers” (Geron Corporation, priority 2016, dated 2022)", "assay_type_in_all_cases": "cell-based", "key": {"MOLM-13 cells [1]": {"test_system": "MOLM-13 cells", "assay": "Annexin V / Propidium Iodide flow cytometry apoptosis assay in MOLM-13", "parameters": "key to Excess over HSA / Excess over BLISS: excess = combination minus HSA/Bliss expected, in % apoptotic cells", "conditions": "for Loewe Excess: ABT-199 nM: r7 1000, r8 500, r9 100, r10 20, r11 5, r12 1, r13 0.2, r14 0.04, r15 0; for Excess over HSA: MOLM-13, 96 hours, ABT-199 0 nM, r7 Mismatch 50 μM, r8 Mismatch 25 μM, r9 Non-complimentary 50 μM, r10 Non-complimentary 25 μM", "procedure": "(§1) AML tumor cells KG-1 (ATCC #CCL-246) and MOLM-13 (DSMZ #ACC554) were plated at a density of ˜20,000 cells per well on 96-well polystyrene U-bottom tissue culture plates (Corning catalog #353777) in RPMI-1640 (ThermoFisher catalog #11875-085) supplemented with 10% fetal bovine serum (ThermoFisher catalog #16140-089) and 1% penicillin/streptomycin antibiotic cocktail (ThermoFisher catalog 15140-122) and grown in a 37° C. incubator under humidified 5% CO2 atmosphere.\n(§2) At 48 and 96 hours, cells were measured for healthy, early apoptotic and apoptotic populations with an Annexin V (interior cell membrane stain) plus Propidium Iodide (PI, DNA binding dye) flow cytometry assay kit (BioLegend catalog 640914). Annexin V detects the externalization of phosphatidylserine in apoptotic cells using recombinant annexin V conjugated to green-fluorescent FITC dye and dead cells using Propidium iodide (PI). Propidium iodide stains necrotic cells with red fluorescence. After treatment with both probes, early apoptotic cells show green fluorescence, apoptotic (dead) cells show red and green fluorescence, and live cells show little or no fluorescence. […] Cells were stained for 30 minutes at 4° C. in the dark, followed by 3× washes with PBS and suspension in FACs Stain Buffer (BD catalog 554657) prior to interrogation on a BD FACs Canto flow cytometer for forward scatter, side scatter, FITC, and PE channels. […] The percentage of apoptotic cells (double labeled) was used to calculate combination effects using both the Highest Single Agent (HSA) and Bliss additivity models (J Tang et al. Frontiers in Pharmacology. 2015; 6 (181)).\n(§3) Using the HSA model, the cytotoxic effect of the combined condition (“C”) was compared to the effect generated by each of the single agent controls (“A” or “B”) for the respective dose in the combination: Excess over HSA=C−A (if A>B) or C−B (if A<B)\n(§4) The Bliss model performs a similar comparison, but instead of the highest effect of single agent, the Bliss model subtracts from the combination a value equal to the sum of each single agent minus their product: Excess over Bliss=C−[(A+B)−(A*B)]\nTreated cells were analyzed by Flow cytometry for Annexin V and Propidium Iodide staining as described previously. Events gated in the apoptotic population (Annexin V+/Propidium Iodide+) were used to determine synergy scores for the combination matrix. Combination data analysis was generated by the Horizon Chalice™ Analyzer Software (Horizon Discovery Group, Cambridge, UK). […] Mismatch and non-complimentary controls were not utilized in this experiment.\nCombination conditions undergo isobolar analysis to generate a combination index and graphically represent the behavior of a combination with synergistic pairs falling below the isobologram and antagonistic falling above it (additive combinations would be expected to fall on the line). The Horizon Chalice™ Analyzer Software additionally provides a synergy score, with values greater than 1 indicating synergy."}, "MOLM-13 cells [2]": {"test_system": "MOLM-13 cells", "assay": "Annexin V / Propidium Iodide flow cytometry apoptosis assay in MOLM-13", "parameters": "key to Excess over BLISS: Excess over Bliss = C−[(A+B)−(A*B)], % apoptotic cells; key to Excess over HSA: excess = combination minus HSA/Bliss expected, in % apoptotic cells", "conditions": "for Loewe Excess: MOLM-13, 48 hour treatment, ABT-199 nM: r7 1000, r8 500, r9 100, r10 20, r11 5, r12 1, r13 0.2, r14 0.04, r15 0; for Excess over BLISS / Excess over HSA: ABT-199 0 nM, r7 Mismatch 50 μM, r8 Mismatch 25 μM, r9 Non-complimentary 50 μM, r10 Non-complimentary 25 μM"}, "KG-1 cells": {"test_system": "KG-1 cells", "assay": "Annexin V / Propidium Iodide flow cytometry apoptosis assay in KG-1", "parameters": "key to Excess over HSA / Excess over BLISS: excess in % apoptotic (Annexin V/PI double-labeled) cells over HSA/Bliss", "conditions": "ABT-199 0 nM, r7 Mismatch 50 μM, r8 Mismatch 25 μM, r9 Non-complimentary 50 μM, r10 Non-complimentary 25 μM", "procedure": "as §1, §2, §3, §4"}}, "note": "{PalmAG} = palmitoyl amide conjugated through an aminoglycerol linker to the 5'-thiophosphate; {PalmN} = palmitoyl amide conjugated through the terminal 3'-amino group; [NPS] = N3'→P5' thiophosphoramidate internucleoside linkage; {NH2} = amino group"}
{"substance": "Non-complimentary: control oligonucleotide 5′-AACAGATTGGGAT-R-3′ (SEQ ID NO: 3), palmitoyl amide on the terminal 3′ amino group of an NPS oligonucleotide (all [NPS], 3' {PalmN}, sugars by position and methylation of C not given here)", "values": [{"measurement": "Loewe Excess", "setting": "MOLM-13 cells [1]; MOLM-13, 48 hour treatment, Non-Complimentary 1 μM", "result": 6}, {"measurement": "Loewe Excess", "setting": "MOLM-13 cells [1]; MOLM-13, 48 hour treatment, Non-Complimentary 10 μM", "result": "−2"}, {"measurement": "Loewe Excess", "setting": "MOLM-13 cells [1]; MOLM-13, 48 hour treatment, Non-Complimentary 50 μM", "result": "−2"}, {"measurement": "Loewe Excess", "setting": "MOLM-13 cells [1]; MOLM-13, 48 hour treatment, Non-Complimentary 75 μM", "result": 1}, {"measurement": "Loewe Excess", "setting": "MOLM-13 cells [1]; MOLM-13, 96 hour treatment, Non-Complimentary 1 μM", "result": 1}, {"measurement": "Loewe Excess", "setting": "MOLM-13 cells [1]; MOLM-13, 96 hour treatment, Non-Complimentary 5 μM", "result": 0}, {"measurement": "Loewe Excess", "setting": "MOLM-13 cells [1]; MOLM-13, 96 hour treatment, Non-Complimentary 10 μM", "result": "−1"}, {"measurement": "Loewe Excess", "setting": "MOLM-13 cells [1]; MOLM-13, 96 hour treatment, Non-Complimentary 25 μM", "result": "−1"}, {"measurement": "Loewe Excess", "setting": "MOLM-13 cells [1]; MOLM-13, 96 hour treatment, Non-Complimentary 50 μM", "result": "−1"}, {"measurement": "Loewe Excess", "setting": "MOLM-13 cells [1]; MOLM-13, 96 hour treatment, Non-Complimentary 75 μM", "result": 1}, {"measurement": "Excess over HSA", "setting": "MOLM-13 cells [1]", "result": 0}, {"measurement": "Loewe Excess", "setting": "MOLM-13 cells [2]; Non-Complimentary 5 μM", "result": "−1"}, {"measurement": "Loewe Excess", "setting": "MOLM-13 cells [2]; Non-Complimentary 25 μM", "result": "−1"}, {"measurement": "Excess over BLISS", "setting": "MOLM-13 cells [2]; MOLM-13, 48 hours", "result": 0}, {"measurement": "Excess over HSA", "setting": "MOLM-13 cells [2]; MOLM-13, 48 hours", "result": 0}, {"measurement": "Excess over BLISS", "setting": "MOLM-13 cells [2]; MOLM-13, 96 hours", "result": 0}, {"measurement": "Excess over BLISS", "setting": "KG-1 cells; KG-1, 48 hours", "result": 0}, {"measurement": "Excess over HSA", "setting": "KG-1 cells; KG-1, 48 hours", "result": 0}, {"measurement": "Excess over BLISS", "setting": "KG-1 cells; KG-1, 96 hours", "result": 0}, {"measurement": "Excess over HSA", "setting": "KG-1 cells; KG-1, 96 hours", "result": 0}]}
{"substance": "Mismatch: control oligonucleotide 5′-R-TAGGTGTAAGCAA-NH2-3′ (SEQ ID NO: 2), palmitoyl amide conjugated NPS-linked oligonucleotide (all [NPS], 5' {PalmAG}, 3' {NH2}, sugars by position and methylation of C not given here)", "values": [{"measurement": "Loewe Excess", "setting": "MOLM-13 cells [1]; MOLM-13, 48 hour treatment, Mismatch 1 μM", "result": 4}, {"measurement": "Loewe Excess", "setting": "MOLM-13 cells [1]; MOLM-13, 48 hour treatment, Mismatch 5 μM", "result": 2}, {"measurement": "Loewe Excess", "setting": "MOLM-13 cells [1]; MOLM-13, 48 hour treatment, Mismatch 25 μM", "result": 1}, {"measurement": "Loewe Excess", "setting": "MOLM-13 cells [1]; MOLM-13, 48 hour treatment, Mismatch 50 μM", "result": 0}, {"measurement": "Loewe Excess", "setting": "MOLM-13 cells [1]; MOLM-13, 48 hour treatment, Mismatch 75 μM", "result": 0}, {"measurement": "Loewe Excess", "setting": "MOLM-13 cells [1]; MOLM-13, 96 hour treatment, Mismatch 1 μM", "result": 1}, {"measurement": "Loewe Excess", "setting": "MOLM-13 cells [1]; MOLM-13, 96 hour treatment, Mismatch 5 μM", "result": 0}, {"measurement": "Loewe Excess", "setting": "MOLM-13 cells [1]; MOLM-13, 96 hour treatment, Mismatch 10 μM", "result": "−1"}, {"measurement": "Loewe Excess", "setting": "MOLM-13 cells [1]; MOLM-13, 96 hour treatment, Mismatch 25 μM", "result": "−2"}, {"measurement": "Loewe Excess", "setting": "MOLM-13 cells [1]; MOLM-13, 96 hour treatment, Mismatch 50 μM", "result": "−1"}, {"measurement": "Loewe Excess", "setting": "MOLM-13 cells [1]; MOLM-13, 96 hour treatment, Mismatch 75 μM", "result": 1}, {"measurement": "Excess over HSA", "setting": "MOLM-13 cells [1]", "result": 0}, {"measurement": "Loewe Excess", "setting": "MOLM-13 cells [2]; Mismatch 10 μM", "result": "−1"}, {"measurement": "Excess over BLISS", "setting": "MOLM-13 cells [2]; MOLM-13, 48 hours", "result": 0}, {"measurement": "Excess over HSA", "setting": "MOLM-13 cells [2]; MOLM-13, 48 hours", "result": 0}, {"measurement": "Excess over BLISS", "setting": "MOLM-13 cells [2]; MOLM-13, 96 hours", "result": 0}, {"measurement": "Excess over BLISS", "setting": "KG-1 cells; KG-1, 48 hours", "result": 0}, {"measurement": "Excess over HSA", "setting": "KG-1 cells; KG-1, 48 hours", "result": 0}, {"measurement": "Excess over BLISS", "setting": "KG-1 cells; KG-1, 96 hours", "result": 0}, {"measurement": "Excess over HSA", "setting": "KG-1 cells; KG-1, 96 hours", "result": 0}]}
